{
  "source": "ChEMBL document CHEMBL6109080",
  "about": "“Synthesis and mechanistic insights of Coumarinyl-Indolinone hybrids as potent inhibitors of Leishmania major” (Eur J Med Chem, 2025)",
  "key": {"[1]": {"system": "Leishmania major", "assay": "Antileishmanial activity against intracellular amastigotes form of Leishmania major assessed as inhibition of parasite growth by alamar-blue reduction assay", "format": "functional, organism-based"}, "[2]": {"system": "Leishmania major", "assay": "Antileishmanial activity against […] promastigote form of Leishmania major assessed as inhibition of parasite growth by alamar-blue reduction assay", "format": "functional, organism-based"}, "[3]": {"system": "Leishmania infantum", "assay": "Antileishmanial activity against Leishmania infantum MHOM/MA(BE)/67 infected in mouse peritoneal macrophage cell incubated for 5 days by giemsa staining based analysis", "format": "functional, organism-based", "conditions": "MHOM/MA(BE)/67, Peritoneal macrophage cell, 120 h"}, "[4]": {"assay": "Hepatotoxicity in male mouse assessed as AST level at 200 mg/kg, ip measured after 48 hrs (reference value: 47.72 +/- 4.77 U/L)", "format": "toxicity, organism-based", "conditions": "in vivo"}, "[5]": {"assay": "Hepatotoxicity in male mouse assessed as effect on ALP level at 200 mg/kg, ip measured after 48 hrs (reference value: 115.44 +/- 8.03 U/L)", "format": "toxicity, organism-based", "conditions": "in vivo"}, "[6]": {"assay": "Hepatotoxicity in male mouse assessed as ALP level at 50 mg/kg, ip measured after 48 hrs (reference value: 115.44 +/- 8.03 U/L)", "format": "toxicity, organism-based", "conditions": "in vivo"}, "[7]": {"system": "Leishmania major", "assay": "Antileishmanial activity against Leishmania major promastigotes assessed as parasite survival measured after 72 hrs by hemocytometric analysis relative to control", "format": "functional"}, "[8]": {"assay": "Hepatotoxicity in male mouse assessed as ALT level at 50 mg/kg, ip measured after 48 hrs (reference value: 28.23 +/- 6.57 U/L)", "format": "toxicity, organism-based", "conditions": "in vivo"}, "[9]": {"assay": "Renal toxicity in male mouse assessed as serum creatinine level at 200 mg/kg, ip measured after 48 hrs (reference value: 0.66 +/- 0.02 mg/dl)", "format": "organism-based", "conditions": "in vivo"}, "[10]": {"assay": "Selectivity index, ratio of CC50 for cytotoxicity against African green monkey Vero cells assessed as reduction in cell viability to IC50 for antileishmanial activity against Leishmania major amastigotes assessed as inhibition of parasite growth", "format": "toxicity, cell-based", "conditions": "read-out: Ratio CC50/IC50"}, "[11]": {"system": "Leishmania major", "assay": "Antileishmanial activity against Leishmania major promastigotes assessed as parasite survival preincubated with 20 uM folinic acid for 1 hrs followed by compound addition and measured after 48 hrs by hemocytometric analysis relative to control", "format": "functional"}, "[12]": {"assay": "Cytotoxicity against African green monkey Vero cells assessed as reduction in cell survival incubated for 72 hrs by crystal violet staining based analysis", "format": "toxicity", "conditions": "chlorocebus sabaeus"}, "[13]": {"assay": "Toxicity in male mouse assessed as CK-MB level at 50 mg/kg, ip measured after 48 hrs (reference value: 41.27 +/- […])", "format": "organism-based", "conditions": "in vivo"}, "[14]": {"system": "Leishmania major", "assay": "Antileishmanial activity against Leishmania major promastigotes assessed as parasite survival preincubated with 20 uM folic acid for 1 hrs followed by compound addition and measured after 48 hrs by hemocytometric analysis relative to control", "format": "functional"}, "[15]": {"assay": "Hepatotoxicity in male mouse assessed as AST level at 50 mg/kg, ip measured after 48 hrs (reference value: 47.72 +/- 4.77 U/L)", "format": "toxicity, organism-based", "conditions": "in vivo"}, "[16]": {"system": "Leishmania major", "assay": "Antileishmanial activity against Leishmania major promastigotes assessed as parasite survival preincubated with 100 uM folinic acid for 1 hrs followed by compound addition and measured after 48 hrs by hemocytometric analysis relative to control", "format": "functional"}, "[17]": {"assay": "Renal toxicity in male mouse assessed as serum creatinine level at 50 mg/kg, ip measured after 48 hrs (reference value: 0.66 +/- 0.02 mg/dl)", "format": "organism-based", "conditions": "in vivo"}, "[18]": {"assay": "Renal toxicity in male mouse assessed as serum urea level at 200 mg/kg, ip measured after 48 hrs (reference value: 36.51 +/- 1.51 mg/dl)", "format": "organism-based", "conditions": "in vivo"}, "[19]": {"assay": "Toxicity in male mouse assessed as CK-MB level at 200 mg/kg, ip measured after 48 hrs (reference value: 41.27 +/- […])", "format": "organism-based", "conditions": "in vivo"}, "[20]": {"system": "Leishmania major", "assay": "Antileishmanial activity against Leishmania major promastigotes assessed as parasite survival preincubated with 100 uM folic acid for 1 hrs followed by compound addition and measured after 48 hrs by hemocytometric analysis relative to control", "format": "functional"}, "[21]": {"assay": "Renal toxicity in male mouse assessed as serum urea level at 50 mg/kg, ip measured after 48 hrs (reference value: 36.51 +/- 1.51 mg/dl)", "format": "organism-based", "conditions": "in vivo"}, "[22]": {"assay": "Hepatotoxicity in male mouse assessed as ALT level at 200 mg/kg, ip measured after 48 hrs (reference value: 28.23 +/- 6.57 U/L)", "format": "toxicity, organism-based", "conditions": "in vivo"}, "[23]": {"system": "Leishmania major", "assay": "Antileishmanial activity against Leishmania major promastigotes assessed as parasite survival at 100 uM measured after 72 hrs by hemocytometric analysis relative to control"}},
  "note": "pIC50: −log10 of the molar value.",
  "data": [
    {"compound": "CC(C)CN1C(=O)C(n2nc(-c3c(O)c4ccccc4oc3=O)cc2-c2ccc(Br)cc2)c2cc(Br)ccc21", "note": "(stereo unspecified)", "values": [
      {"measurement": "pIC50", "setting": "[1]", "value": 5.09},
      {"measurement": "pIC50", "setting": "[2]", "value": 5.16}
    ]},
    {"compound": "CCCN1C(=O)C(n2nc(-c3c(O)c4ccccc4oc3=O)cc2-c2ccc(Br)cc2)c2cc(Cl)ccc21", "note": "(stereo unspecified)", "values": [
      {"measurement": "pIC50", "setting": "[1]", "value": 5.17},
      {"measurement": "pIC50", "setting": "[2]", "value": 5.33}
    ]},
    {"compound": "CC(C)CN1C(=O)C(n2nc(-c3c(O)c4ccccc4oc3=O)cc2-c2ccc(F)cc2)c2cc(Cl)ccc21", "note": "(stereo unspecified)", "values": [
      {"measurement": "pIC50", "setting": "[1]", "value": 5.14},
      {"measurement": "pIC50", "setting": "[2]", "value": 5.24}
    ]},
    {"compound": "CC(C)CN1C(=O)C(n2nc(-c3c(O)c4ccccc4oc3=O)cc2-c2ccc(F)cc2)c2cc(Br)ccc21", "note": "(stereo unspecified)", "values": [
      {"measurement": "pIC50", "setting": "[1]", "value": 5.16},
      {"measurement": "pIC50", "setting": "[2]", "value": 5.21}
    ]},
    {"compound": "O=C(Nc1cc(-c2ccccc2F)n[nH]1)Oc1ccccc1", "values": [
      {"measurement": "pIC50", "setting": "[3]", "value": 4.70}
    ]},
    {"compound": "O=C1Nc2ccc([N+](=O)[O-])cc2C1n1nc(-c2c(O)c3ccccc3oc2=O)cc1-c1ccc(Cl)cc1", "note": "(stereo unspecified)", "values": [
      {"measurement": "Activity", "setting": "[4]", "value": 48.89, "unit": "U/L"},
      {"measurement": "Activity", "setting": "[5]", "value": 113.63, "unit": "U/L"},
      {"measurement": "Activity", "setting": "[6]", "value": 106.35, "unit": "U/L"},
      {"measurement": "Survival", "setting": "[7]", "value": 21, "unit": "%"},
      {"measurement": "Activity", "setting": "[8]", "value": 29.39, "unit": "U/L"},
      {"measurement": "Activity", "setting": "[9]", "value": 0.61, "unit": "mg/dL"},
      {"measurement": "selectivity ratio", "setting": "[10]", "value": 42.3},
      {"measurement": "Survival", "setting": "[11]", "value": 78, "unit": "%"},
      {"measurement": "CC50 at 72 h", "setting": "[12]", "value": 60.7, "unit": "µM"},
      {"measurement": "Activity", "setting": "[13]", "value": 44.71, "unit": "U/L"},
      {"measurement": "Survival", "setting": "[14]", "value": 68, "unit": "%"},
      {"measurement": "Activity", "setting": "[15]", "value": 45.98, "unit": "U/L"},
      {"measurement": "Survival", "setting": "[16]", "value": 85, "unit": "%"},
      {"measurement": "Activity", "setting": "[17]", "value": 0.62, "unit": "mg/dL"},
      {"measurement": "pIC50", "setting": "[1]", "value": 5.84},
      {"measurement": "pIC50", "setting": "[2]", "value": 5.84},
      {"measurement": "Activity", "setting": "[18]", "value": 38.32, "unit": "mg/dL"},
      {"measurement": "Activity", "setting": "[19]", "value": 44.71, "unit": "U/L"},
      {"measurement": "Survival", "setting": "[20]", "value": 73, "unit": "%"},
      {"measurement": "Activity", "setting": "[21]", "value": 34.17, "unit": "mg/dL"},
      {"measurement": "Activity", "setting": "[22]", "value": 32.59, "unit": "U/L"}
    ]},
    {"compound": "O=C1Nc2ccc([N+](=O)[O-])cc2C1n1nc(-c2c(O)c3ccccc3oc2=O)cc1-c1ccc(Br)cc1", "note": "(stereo unspecified)", "values": [
      {"measurement": "pIC50", "setting": "[1]", "value": 5.41},
      {"measurement": "pIC50", "setting": "[2]", "value": 5.61}
    ]},
    {"compound": "CN1C(=O)C(n2nc(-c3c(O)c4ccccc4oc3=O)cc2-c2ccc(F)cc2)c2cc(Cl)ccc21", "note": "(stereo unspecified)", "values": [
      {"measurement": "pIC50", "setting": "[1]", "value": 5.17},
      {"measurement": "pIC50", "setting": "[2]", "value": 5.39}
    ]},
    {"compound": "O=C1C(n2nc(-c3c(O)c4ccccc4oc3=O)cc2-c2ccc(Cl)cc2)c2ccccc2N1CCc1ccccc1", "note": "(stereo unspecified)", "values": [
      {"measurement": "pIC50", "setting": "[1]", "value": 5.07},
      {"measurement": "pIC50", "setting": "[2]", "value": 5.23}
    ]},
    {"compound": "O=C1C(n2nc(-c3c(O)c4ccccc4oc3=O)cc2-c2ccc(Br)cc2)c2ccccc2N1CCc1ccccc1", "note": "(stereo unspecified)", "values": [
      {"measurement": "pIC50", "setting": "[1]", "value": 5.03},
      {"measurement": "pIC50", "setting": "[2]", "value": 5.14}
    ]},
    {"compound": "CCCN1C(=O)C(n2nc(-c3c(O)c4ccccc4oc3=O)cc2-c2ccc(F)cc2)c2cc(Cl)ccc21", "note": "(stereo unspecified)", "values": [
      {"measurement": "pIC50", "setting": "[1]", "value": 5.24},
      {"measurement": "pIC50", "setting": "[2]", "value": 5.33}
    ]},
    {"compound": "CC(C)CN1C(=O)C(n2nc(-c3c(O)c4ccccc4oc3=O)cc2-c2ccc(Br)cc2)c2cc(Cl)ccc21", "note": "(stereo unspecified)", "values": [
      {"measurement": "pIC50", "setting": "[1]", "value": 5.18},
      {"measurement": "pIC50", "setting": "[2]", "value": 5.29}
    ]},
    {"compound": "CCCN1C(=O)C(n2nc(-c3c(O)c4ccccc4oc3=O)cc2-c2ccc(Cl)cc2)c2cc(Cl)ccc21", "note": "(stereo unspecified)", "values": [
      {"measurement": "pIC50", "setting": "[1]", "value": 5.14},
      {"measurement": "pIC50", "setting": "[2]", "value": 5.25}
    ]},
    {"compound": "COc1ccc(-c2cc(NC(=O)N3CCC(Cc4ccccc4)CC3)[nH]n2)cc1", "values": [
      {"measurement": "pIC50", "setting": "[3]", "value": 4.72}
    ]},
    {"compound": "CC(C)CN1C(=O)C(n2nc(-c3c(O)c4ccccc4oc3=O)cc2-c2ccc(Cl)cc2)c2cc(Cl)ccc21", "note": "(stereo unspecified)", "values": [
      {"measurement": "pIC50", "setting": "[1]", "value": 5.08},
      {"measurement": "pIC50", "setting": "[2]", "value": 5.18}
    ]},
    {"compound": "CC(C)CN1C(=O)C(n2nc(-c3c(O)c4ccccc4oc3=O)cc2-c2ccc(Cl)cc2)c2cc(Br)ccc21", "note": "(stereo unspecified)", "values": [
      {"measurement": "pIC50", "setting": "[1]", "value": 5.12},
      {"measurement": "pIC50", "setting": "[2]", "value": 5.22}
    ]},
    {"compound": "COc1cc(Cc2cnc(N)nc2N)cc(OC)c1OC", "note": "[TRIMETHOPRIM]", "values": [
      {"measurement": "survival at 100 µM", "setting": "[23]", "value": 72, "unit": "%"},
      {"measurement": "Survival", "setting": "[20]", "value": 99, "unit": "%"}
    ]}
  ]
}
